Data as given in patent EP0326329B1, “Quinazoline derivatives useful as insecticides” (Dow AgroSciences LLC, priority 1988, dated 1989).

Tests used:
Type in all cases: in vivo
[1] = system: Pyricularia oryzae (rice blast); conditions: disease control rating, foliar spray, host rice; 400 ppm (+++ at 100 ppm)
[2] = system: Erysiphe graminis tritici (powdery mildew); assay: Greenhouse Test 1, foliar spray fungicide screen (POWD MDEW), host wheat; conditions: disease control rating, 400 ppm (+++ at 100 ppm)
[3] = system: Twospotted spider mites (Tetranychus urticae Koch); assay: Mite/insect screen, sprayed squash cotyledons (SM); conditions: percent mortality; for mortality at 200 ppm / mortality at 400 ppm: Tetranychus urticae, read-out: SM RESULTS %
Summary of the method: (§1)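 Mortality and phytotoxicity read after standard exposure periods on sprayed squash: cotyledons for melon aphids and twospotted spider mites, excised leaves placed with southern armyworm larvae. Spray solutions were water dilutions of acetone/alcohol stocks containing TOXIMUL R and S emulsifiers, applied to runoff at 10 psi and air-dried one hour.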

[4] = system: melon aphids (Aphis gossypii Glover); assay: Mite/insect screen, sprayed squash cotyledons (MA); conditions: percent mortality; for mortality at 200 ppm / mortality at 400 ppm: Aphis gossypii, read-out: MA RESULTS %
Summary of the method: as §1

[5] = system: Botrytis cinerea (gray mold); assay: Greenhouse Test 1, foliar spray fungicide screen (GRAY MOLD), host grape berries; conditions: disease control rating, 400 ppm (+++ at 100 ppm)
[6] = system: Puccinia recondita tritici (leaf rust); assay: Greenhouse Test 1, foliar spray fungicide screen (LEAF RUST), host wheat; conditions: disease control rating, 400 ppm (+++ at 100 ppm)
[7] = system: Pseudoperonospora cubensis (downy mildew); assay: Greenhouse Test 1, foliar spray fungicide screen (DOWN MDEW), host squash; conditions: disease control rating, 400 ppm (+++ at 100 ppm)
[8] = system: southern armyworm (Spodopetra eridania Cramer); assay: Mite/insect screen, sprayed squash leaves (SAW); conditions: percent mortality; for mortality at 200 ppm / mortality at 400 ppm: Spodoptera eridania, read-out: SAW RESULTS %
Summary of the method: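 For the armyworm test, two uninfested sprayed leaves were excised, once dry for an hour, and placed in a Petri dish holding larvae. Spray solutions came from an emulsifier-containing 50:50 acetone/alcohol formulation diluted with water and were applied to runoff.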

[9] = system: Southern corn rootworm (Diabrotica undecimpuctata howardi Barber); assay: Mite/insect screen, soil treatment (CRW); conditions: percent mortality, soil treatment; for mortality at 12 ppm / mortality at 24 ppm: Diabrotica, read-out: CRW RESULTS %
Summary of the method: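 Compounds dissolved in acetone/alcohol (50:50) with Toximul R/S emulsifiers, diluted with water. Soil (15 g, with presoaked corn seed) treated with 1 mL test solution, dried 6–12 h, then five 2–3 instar larvae added; held at 23°C. Percent mortality and phytotoxicity scored after standard exposure periods.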

Row | SMILES | RICE BLAST [1] | POWD MDEW [2] | GRAY MOLD [5] | LEAF RUST [6] | DOWN MDEW [7] | mortality at 200 ppm ([3]; spray rate 200 ppm) | mortality at 200 ppm ([4]; spray rate 200 ppm) | mortality at 400 ppm ([4]; spray rate 400 ppm) | mortality at 200 ppm ([8]; spray rate 200 ppm) | mortality at 400 ppm ([8]; spray rate 400 ppm) | mortality at 12 ppm ([9]; CRW rate 12.00 ppm) | mortality at 24 ppm ([9]; CRW rate 24.00 ppm) | mortality at 400 ppm ([3]; spray rate 400 ppm) | further results
1 | Fc1cccc2c(OCCc3ccc(-c4ccccc4)cc3)ncnc12 [Example 93, 8-fluoro-4-[2-(1,1'-biphenyl)-4-ylethoxy]quinazoline] | +++ (+++ = 90-100% control at 100 ppm) | +++ (+++ = 90-100% control at 100 ppm) | - (- = 0-19% control at 400 ppm) | +++ (+++ = 90-100% control at 100 ppm) | +++ (+++ = 90-100% control at 100 ppm) |  |  |  |  |  |  |  |  | SM RESULTS % ([3]; spray rate 200 ppm): 80%; SM RESULTS % ([3]; spray rate 400 ppm): 0%; MA RESULTS % ([4]; spray rate 200 ppm): 80%; MA RESULTS % ([4]; spray rate 400 ppm): 0%; SAW RESULTS % ([8]; spray rate 200 ppm): 100%; SAW RESULTS % ([8]; spray rate 400 ppm): 100%; CRW RESULTS % ([9]; CRW rate 12.00 ppm): 0%; CRW RESULTS % ([9]; CRW rate 24.00 ppm): 0%
2 | FC(F)(F)c1cccc(Oc2ccc(CCOc3ncnc4ccccc34)cc2)c1 [Example 188, 4-[2-[4-[3-(trifluoromethyl)phenoxy]phenyl]ethoxy]quinazoline] | +++ (+++ = 90-100% control at 100 ppm) | +++ (+++ = 90-100% control at 100 ppm) | - (- = 0-19% control at 400 ppm) | +++ (+++ = 90-100% control at 100 ppm) | +++ (+++ = 90-100% control at 100 ppm) | 100% | 100% | 80% | 0% | 80% | 0% | 100% |  | 
3 | C=CC(CCc1ccccc1)Oc1ncnc2ccccc12 (centres unmarked) [Example 148, 4-[(1-benzyl-3-buten-2-yl)oxy]quinazoline] | ++ (++ = 90-100% control at 400 ppm) | ++ (++ = 90-100% control at 400 ppm) | - (- = 0-19% control at 400 ppm) | + (+ = 20-89% control at 400 ppm) | ++ (++ = 90-100% control at 400 ppm) |  |  | 0% |  | 0% |  | 0% | 0% | 
4 | Fc1cccc2c(OCCc3ccc(C(F)(F)F)cc3)ncnc12 [Example 118, 8-fluoro-4-[2-(4-trifluoromethyl)ethoxy]quinazoline] | +++ (+++ = 90-100% control at 100 ppm) | +++ (+++ = 90-100% control at 100 ppm) | - (- = 0-19% control at 400 ppm) | +++ (+++ = 90-100% control at 100 ppm) | +++ (+++ = 90-100% control at 100 ppm) | 100% | 100% | 0% | 60% | 100% | 0% | 0% | 0% | 
5 | c1ccc(Sc2cccc(CCOc3ncnc4ccccc34)c2)cc1 [Example 137, 4-[2-[3-(phenylthio)phenyl]ethoxy]quinazoline] | +++ (+++ = 90-100% control at 100 ppm) | +++ (+++ = 90-100% control at 100 ppm) | - (- = 0-19% control at 400 ppm) | +++ (+++ = 90-100% control at 100 ppm) | +++ (+++ = 90-100% control at 100 ppm) | 0% | 60% | 0% | 0% | 0% | 0% | 100% | 0% | 
6 | COc1cc(CCOc2ncnc3ccccc23)ccc1O [Example 147] | - (- = 0-19% control at 400 ppm) | +++ (+++ = 90-100% control at 100 ppm) | - (- = 0-19% control at 400 ppm) | +++ (+++ = 90-100% control at 100 ppm) | +++ (+++ = 90-100% control at 100 ppm) | 0% | 50% | 0% | 0% | 0% | 0% | 0% | 0% | 
7 | Clc1ccc2c(NCCc3cccc(Oc4ccccc4)c3)ncnc2c1 [Example 171, 7-chloro-N-[2-(3-phenoxyphenyl)ethyl]-4-quinazolinamine] | +++ (+++ = 90-100% control at 100 ppm) | +++ (+++ = 90-100% control at 100 ppm) | - (- = 0-19% control at 400 ppm) | +++ (+++ = 90-100% control at 100 ppm) | +++ (+++ = 90-100% control at 100 ppm) | 20% | 80% | 80% | 0% | 0% | 0% | 0% | 40% | 
